Assay [1] concerns unilateral 6-hydroxydopamine lesioned (hemiparkinsonian) rats. As to the kind of experiment: L-dopa-dependent abnormal involuntary movement (AIM) inhibition in hemiparkinsonian rats. Type of assay: in vivo, rat. Conditions: unilaterally lesioned male rats, 10 mg/kg, L-dopa and benserazide 8 mg/kg each. Here is the method:
First, we have previously published that D3 receptor selective compounds could attenuate a hallucinogen-dependent head twitch response (HTR) in male DBA/2J mice. […] Second, we previously reported that D3 vs. D2 dopamine receptor subtype selective ligands could attenuate L-dopa dependent abnormal involuntary movement (AIM) scores in unilaterally lesioned (hemiparkinsonian) male rats, which is a model for L-dopa-Induced Dyskinesia (LID). […]
AIMs ratings were performed as previously described. The severity of the AIMs was quantified using lesioned rats that were observed individually in their home cages at 15 min intervals, starting 15 min after the injection of L-dopa for approximately 2 h. The AIMs were scored in four categories: (1) axial AIMs, including dystonic or choreiform torsion of the trunk and neck towards the side contralateral to the lesion; (2) limb AIMs, including jerky and/or dystonic movements of the forelimb contralateral to the lesion; (3) orolingual AIMs, including twitching of orofacial muscles with empty masticatory movements and protrusion of the tongue towards the side contralateral to the lesion and (4) locomotive AIMs, including increased locomotion with contralateral side bias. […]
The effect of Group was assessed using two-way analysis of variance (ANOVA) with time as the repeated measure. […]

Assay [2] addresses T1, D3 dopamine receptor (Homo sapiens, UniProt P35462).
Description: Competitive radioligand binding techniques were used to determine the Ki values of ligands at human D2 and D3 dopamine receptors expressed in stably transfected HEK cells (Table 1).
The final radioligand concentration was approximately equal to the Kd value for the binding of the radioligand. […] For each competition curve, triplicates were performed using two concentrations of inhibitor per decade over five orders of magnitude.
The competition curves were modeled for a single binding site using Bs = Bo − ((Bo + L)/(IC50 + L)) where Bs is the amount of ligand bound to receptor and Bo is the amount of ligand bound to receptor in the absence of competitive inhibitor. L is the concentration of the competitive inhibitor. […] The values for Bs and Bo were constrained using experimentally derived values. The IC50 values were converted to equilibrium dissociation constants (Ki) [50, 51]. Mean Ki values ± S.E.M. are reported for at least three independent experiments.
Assay [3] has as its target 5-HT2B receptor (Homo sapiens, UniProt P41595). As to the kind of experiment: PDSP off-target binding. Conditions: read-out: binding affinity 5-HT2B (PDSP). The source says:
(§1) Further evaluation of the off-target binding of compound 6a was provided by the Psychoactive Drug Screening Program (PDSP) for a range of receptors including serotonin receptor subtypes, α-adrenergic receptor subtypes, β-adrenergic receptor subtypes, histaminergic receptor subtypes, muscarinic receptor subtypes, opioid receptor subtypes and the two sigma receptor subtypes.

Assay [4] concerns the target sigma-1 receptor (Homo sapiens, UniProt Q99720). The assay is described as follows: PDSP off-target binding. Conditions: read-out: binding affinity sigma-1 (PDSP).
Description: as §1

The target in assay [5] is α2b adrenergic receptor (Homo sapiens, UniProt P18089). As to the kind of experiment: PDSP off-target binding. Conditions: read-out: binding affinity α2b (PDSP).
Sequence of α2b adrenergic receptor (P18089 whole entry): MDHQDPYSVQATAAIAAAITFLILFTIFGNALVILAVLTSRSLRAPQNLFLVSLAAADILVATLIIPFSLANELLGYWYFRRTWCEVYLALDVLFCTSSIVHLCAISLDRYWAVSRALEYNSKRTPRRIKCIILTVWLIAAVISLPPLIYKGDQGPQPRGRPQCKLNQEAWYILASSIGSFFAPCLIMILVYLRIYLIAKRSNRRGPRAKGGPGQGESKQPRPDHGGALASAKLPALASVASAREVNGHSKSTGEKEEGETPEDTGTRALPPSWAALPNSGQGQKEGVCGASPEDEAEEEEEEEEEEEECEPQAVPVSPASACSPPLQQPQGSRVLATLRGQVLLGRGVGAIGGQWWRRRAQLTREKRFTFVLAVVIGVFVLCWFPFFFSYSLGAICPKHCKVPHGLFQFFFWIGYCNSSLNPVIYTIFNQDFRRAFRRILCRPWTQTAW
Description: as §1

Assay [6] addresses T1, D3 dopamine receptor. The assay is described as follows: PDSP off-target binding. Conditions: read-out: binding affinity D3 (PDSP).
Description: as §1

For assay [7], the target named is 5-HT7A receptor (Homo sapiens, UniProt P34969). As to the kind of experiment: PDSP off-target binding. Conditions: read-out: binding affinity 5-HT7A (PDSP).
Sequence of 5-HT7A receptor (P34969 1-445 isoform P34969-2): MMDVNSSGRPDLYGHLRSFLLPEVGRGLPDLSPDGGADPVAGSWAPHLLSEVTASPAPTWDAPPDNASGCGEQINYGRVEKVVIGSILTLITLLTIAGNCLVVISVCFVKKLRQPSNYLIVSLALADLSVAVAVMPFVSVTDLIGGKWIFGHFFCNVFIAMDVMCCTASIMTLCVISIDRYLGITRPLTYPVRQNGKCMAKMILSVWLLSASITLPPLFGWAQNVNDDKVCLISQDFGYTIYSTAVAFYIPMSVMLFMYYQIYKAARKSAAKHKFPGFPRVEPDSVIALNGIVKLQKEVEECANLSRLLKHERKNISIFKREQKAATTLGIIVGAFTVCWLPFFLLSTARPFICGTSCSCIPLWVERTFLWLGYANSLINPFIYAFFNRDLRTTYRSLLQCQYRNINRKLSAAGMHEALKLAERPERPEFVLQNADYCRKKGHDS
Description: as §1

Assay [8] addresses α2a adrenergic receptor (Homo sapiens, UniProt P08913). The assay is described as follows: PDSP off-target binding. Conditions: read-out: binding affinity α2a (PDSP).
Description: as §1

Assay [9] addresses D5 dopamine receptor (Homo sapiens, UniProt P21918). The assay is described as follows: PDSP off-target binding. Conditions: in words.
Description: as §1

Assay [10] has as its target D2 dopamine receptor (Homo sapiens, UniProt P14416). As to the kind of experiment: PDSP off-target binding. Conditions: in words.
Description: as §1

Assay [11] has as its target T1, D3 dopamine receptor. The assay is described as follows: Forskolin-dependent adenylyl cyclase inhibition assay (cAMP-Glo, HEK cells). It is filed as cell-based. Details: expressed in transfected cells; host or cells: HEK293. Conditions: human D3, test compound at 10x Ki, normalized to quinpirole 10,000 nM. How it is done:
Quinpirole was used as a reference prototypic full agonist and haloperidol was used as a reference prototypic antagonist.
The forskolin-dependent adenylyl cyclase inhibition assay was performed using a cAMP-Glo Assay kit (Promega). For this assay cAMP stimulates protein kinase A (PKA) activity, which leads to a decrease in ATP levels and a decrease in the luciferase-coupled production of light. This is a 96 well plate assay using HEK cells stably transfected to express the human D3 dopamine receptor (10,000 cells/well/0.1 mL complete media). After removing media and rinsing with phosphate buffered saline, cells were incubated with 20 μL of forskolin (6000 nM) and test compound or vehicle. […] After cells, test compound (or vehicle) and forskolin (or vehicle) were incubated for 15 min, cells were lysed using 20 μL lysis buffer (provided with the kit) and mixed for 15 min at room temperature. A cAMP Detection Solution (40 μL) was added to each well, gently mixed for 60 s and incubated at room temperature for 20 min. The Kinase-Glo Solution was added (40 μL) to terminate the PKA reaction. The reaction mixture was gently mixed for 60 s and then incubated at room temperature for 10 min. The remaining ATP was detected via a luciferase reaction. The plates were read using an Enspire Alpha 2390 Multilabel Reader/Luminometer. Haloperidol (200 nM) and quinpirole (10,000 nM) was used as a prototypic reference antagonist and full agonist, respectively.
Figure 3 Comparison of the Efficacy of Phenylthiophene Analogs for Adenylyl Cyclase Inhibition and β-Arrestin Binding at Human D3 Dopamine Receptors. […] Values were normalized to reference full agonist quinpirole (10,000 nM).

The structures appear in SMILES notation. Where two headings read alike, the source gives them in different places. A value given as a limit tells only on which side of the number the result lay.

T1 sequence (P35462 whole entry): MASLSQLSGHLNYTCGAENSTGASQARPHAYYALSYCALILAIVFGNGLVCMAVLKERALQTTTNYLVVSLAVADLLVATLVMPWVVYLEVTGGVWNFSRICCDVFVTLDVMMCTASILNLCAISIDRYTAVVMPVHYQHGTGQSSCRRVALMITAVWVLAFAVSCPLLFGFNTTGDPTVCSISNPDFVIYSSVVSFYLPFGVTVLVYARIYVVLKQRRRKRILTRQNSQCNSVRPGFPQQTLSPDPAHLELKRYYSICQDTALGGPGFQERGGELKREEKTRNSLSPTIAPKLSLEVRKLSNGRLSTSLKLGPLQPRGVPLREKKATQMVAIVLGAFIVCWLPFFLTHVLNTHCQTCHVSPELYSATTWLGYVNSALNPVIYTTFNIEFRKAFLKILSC
Sequence of α2a adrenergic receptor (P08913 whole entry): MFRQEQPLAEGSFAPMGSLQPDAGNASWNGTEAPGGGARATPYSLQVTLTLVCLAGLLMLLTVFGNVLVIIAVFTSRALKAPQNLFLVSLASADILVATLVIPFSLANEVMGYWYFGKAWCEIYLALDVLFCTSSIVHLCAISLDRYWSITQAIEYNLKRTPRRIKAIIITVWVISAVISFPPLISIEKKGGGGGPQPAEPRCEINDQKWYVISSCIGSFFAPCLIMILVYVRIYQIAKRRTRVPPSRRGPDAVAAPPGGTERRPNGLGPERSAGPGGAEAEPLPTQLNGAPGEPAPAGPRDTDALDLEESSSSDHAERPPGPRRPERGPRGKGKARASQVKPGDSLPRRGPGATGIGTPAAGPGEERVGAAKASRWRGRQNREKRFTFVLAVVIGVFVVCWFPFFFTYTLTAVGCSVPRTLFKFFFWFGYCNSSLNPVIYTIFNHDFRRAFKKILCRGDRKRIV
Sequence of D5 dopamine receptor (P21918 whole entry): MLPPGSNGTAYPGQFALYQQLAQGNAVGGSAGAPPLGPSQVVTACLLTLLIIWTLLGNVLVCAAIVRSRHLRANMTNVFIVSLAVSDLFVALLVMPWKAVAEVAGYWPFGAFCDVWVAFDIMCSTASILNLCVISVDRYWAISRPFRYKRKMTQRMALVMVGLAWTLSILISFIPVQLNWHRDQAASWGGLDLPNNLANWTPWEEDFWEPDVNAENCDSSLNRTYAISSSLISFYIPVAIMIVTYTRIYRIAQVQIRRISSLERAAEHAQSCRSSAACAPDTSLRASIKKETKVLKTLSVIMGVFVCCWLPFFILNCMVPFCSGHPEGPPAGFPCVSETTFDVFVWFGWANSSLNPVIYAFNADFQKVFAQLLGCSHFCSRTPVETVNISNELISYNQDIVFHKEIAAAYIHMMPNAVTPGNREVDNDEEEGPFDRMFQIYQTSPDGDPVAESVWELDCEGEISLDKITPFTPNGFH
Sequence of 5-HT2B receptor (P41595 whole entry): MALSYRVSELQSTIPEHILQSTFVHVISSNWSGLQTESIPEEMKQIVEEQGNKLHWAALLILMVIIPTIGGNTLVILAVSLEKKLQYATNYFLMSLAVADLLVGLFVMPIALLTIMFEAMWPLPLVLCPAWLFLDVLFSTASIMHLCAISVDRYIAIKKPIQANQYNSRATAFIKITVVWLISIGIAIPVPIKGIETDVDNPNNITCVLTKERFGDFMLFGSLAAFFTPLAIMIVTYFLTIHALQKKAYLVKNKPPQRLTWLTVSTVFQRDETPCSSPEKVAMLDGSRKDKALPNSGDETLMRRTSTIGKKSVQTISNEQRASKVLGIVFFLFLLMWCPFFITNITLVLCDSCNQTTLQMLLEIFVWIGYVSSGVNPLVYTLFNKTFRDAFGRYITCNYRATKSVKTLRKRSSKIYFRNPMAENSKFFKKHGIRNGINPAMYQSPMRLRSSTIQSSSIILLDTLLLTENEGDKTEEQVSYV
Sequence of sigma-1 receptor (Q99720 whole entry, species assumed): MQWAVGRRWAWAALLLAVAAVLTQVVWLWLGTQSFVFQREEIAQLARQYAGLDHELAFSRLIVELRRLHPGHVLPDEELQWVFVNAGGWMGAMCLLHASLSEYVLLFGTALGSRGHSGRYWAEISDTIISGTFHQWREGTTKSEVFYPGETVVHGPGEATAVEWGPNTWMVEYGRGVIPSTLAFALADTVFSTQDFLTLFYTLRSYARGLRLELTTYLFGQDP
Sequence of D2 dopamine receptor (P14416 whole entry): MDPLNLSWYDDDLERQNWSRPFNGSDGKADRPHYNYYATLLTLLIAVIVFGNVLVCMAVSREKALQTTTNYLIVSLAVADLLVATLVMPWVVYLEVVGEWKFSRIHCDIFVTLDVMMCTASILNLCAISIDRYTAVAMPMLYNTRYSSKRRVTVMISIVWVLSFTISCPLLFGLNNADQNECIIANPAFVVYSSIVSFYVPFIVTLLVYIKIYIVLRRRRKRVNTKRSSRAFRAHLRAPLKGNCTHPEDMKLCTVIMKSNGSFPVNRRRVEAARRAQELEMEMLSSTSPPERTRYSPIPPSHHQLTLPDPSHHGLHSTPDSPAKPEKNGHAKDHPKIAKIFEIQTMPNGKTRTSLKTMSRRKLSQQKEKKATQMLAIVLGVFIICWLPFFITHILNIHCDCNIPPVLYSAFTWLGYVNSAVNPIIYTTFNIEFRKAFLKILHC

Regarding `O=C(NCCCCN1CCN(c2ccccc2F)CC1)c1ccc(-c2ccsc2)cc1` [Compound 6a], the “L-dopa dependent AIM scores” value in [1] is given as “attenuate the AIM scores”. Besides, the Ki is 0.0014 ± 0.0002 µM in assay [2]; 0.0363 µM in assay [3]; over 0.175 µM in assay [4]; over 0.1 µM in [5]; 0.0002 µM in assay [6]; 0.0736 µM in assay [7]. Also, in assay [8], the Ki turned out to be 0.0152 µM. In assay [2] (ratio of D2 and D3 Ki values (Table 1)), the “D2:D3 Selectivity” value was found to be 467. The “binding affinity D5 (PDSP)” value in assay [9] is “low affinity binding”. Besides, the “binding affinity D2 (PDSP)” value in assay [10] is “low affinity binding”. The “efficacy in adenylyl cyclase inhibition assay” value in assay [11] is reported as “weak partial agonists”.

Values taken from article PMC8198181, “Evaluation of Substituted N-Phenylpiperazine Analogs as D3 vs. D2 Dopamine Receptor Subtype Selective Ligands” (Molecules, 2021).
